≈ marks a conversion by molar mass, not a printed value. Each block holds one compound with its values, some of them ahead of it.
Key:
[1] = biological target: T1, Receptor tyrosine-protein kinase erbB-2 (Homo sapiens, UniProt P04626); assay: Inhibition of full-length HER2 phosphorylation transfected in human MCF-7 cl.24 cells after 4 hrs by laser scanning fluorescence microplate cytometry; assay type: cell-based
[2] = biological target: T1, Receptor tyrosine-protein kinase erbB-2; assay: Inhibition of human HER2 kinase domain expressed in baculovirus/Sf21 system by ELISA
KB = assay: Antiproliferative activity against human KB cells; assay type: functional, cell-based
[3] = Lipophilicity, log D of the compound at pH 7.4; assay type: physicochemical; settings: buffer
LoVo = assay: Antitumor activity against human LoVo cells xenografted in mouse assessed as tumor growth inhibition at 100 mg/kg, po qd; assay type: functional; settings: read-out: TGI
[4] = AUC in mouse at 50 mg/kg, po; assay type: ADME, organism-based; parameters: dose 50 mg/kg, route oral; settings: plasma
[5] = Fraction unbound in human plasma; assay type: ADME, cell-free
[6] = Fraction unbound in rat plasma; assay type: ADME, cell-free
[7] = Bioavailability in AP-Wistar rat at 5 mg/kg, po and 2 mg/kg, iv; assay type: ADME, organism-based; settings: in vivo
[8] = Intrinsic clearance in human hepatocytes assessed per million cells; assay type: ADME, cell-based, Hepatocyte; settings: read-out: CLH
[9] = Apparent permeability from apical to basolateral side of human Caco2 cells at 10 uM; assay type: ADME, cell-based; settings: Caco-2
Cytochrome P450 2C9 = Cytochrome P450 2C9 (Homo sapiens, UniProt P11712); assay: Inhibition of CYP2C9 (unknown origin); assay type: ADME
[10] = Clearance in AP-Wistar rat at 5 mg/kg, po and 2 mg/kg, iv; assay type: ADME, organism-based; settings: in vivo
Cytochrome P450 2D6 = Cytochrome P450 2D6 (Homo sapiens, UniProt P10635); assay: Inhibition of CYP2D6 (unknown origin); assay type: ADME
[11] = Volume of distribution at steady state in AP-Wistar rat at 5 mg/kg, po and 2 mg/kg, iv; assay type: ADME, organism-based; settings: in vivo, read-out: Vdss
Cytochrome P450 1A2 = biological target: T2, Cytochrome P450 1A2 (Homo sapiens, UniProt P05177); assay: Inhibition of CYP1A2 (unknown origin); assay type: ADME
T2 sequence (P05177 whole entry): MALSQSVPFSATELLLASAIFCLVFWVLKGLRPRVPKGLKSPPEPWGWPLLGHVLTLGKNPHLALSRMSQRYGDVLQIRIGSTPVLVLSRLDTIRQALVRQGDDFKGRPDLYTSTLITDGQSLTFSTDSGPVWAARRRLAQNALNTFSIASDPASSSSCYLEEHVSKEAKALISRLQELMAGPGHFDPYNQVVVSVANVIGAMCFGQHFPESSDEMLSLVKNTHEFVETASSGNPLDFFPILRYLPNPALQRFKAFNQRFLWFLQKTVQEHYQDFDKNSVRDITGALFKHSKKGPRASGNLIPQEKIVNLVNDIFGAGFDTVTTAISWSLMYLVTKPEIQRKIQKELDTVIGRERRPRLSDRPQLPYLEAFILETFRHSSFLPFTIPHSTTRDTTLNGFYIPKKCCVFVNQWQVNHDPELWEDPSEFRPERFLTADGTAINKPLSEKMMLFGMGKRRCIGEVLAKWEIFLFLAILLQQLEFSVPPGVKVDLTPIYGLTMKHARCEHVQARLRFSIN

Cytochrome P450 2C19 = Cytochrome P450 2C19 (Homo sapiens, UniProt P33261); assay: Inhibition of CYP2C19 (unknown origin); assay type: ADME
[12] = Clearance in dog at 2 mg/kg, po and 1 mg/kg, iv; assay type: ADME, organism-based, Canis lupus familiaris; settings: in vivo
[13] = Bioavailability in dog at 2 mg/kg, po and 1 mg/kg, iv; assay type: ADME, organism-based, Canis lupus familiaris; settings: in vivo
[14] = Volume of distribution at steady state in dog at 2 mg/kg, po and 1 mg/kg, iv; assay type: ADME, organism-based, Canis lupus familiaris; settings: in vivo, read-out: Vdss
[15] = Aqueous solubility of the compound in phosphate buffer at pH 6.8; assay type: physicochemical

T1 sequence (P04626 whole entry, the tested form may be a part): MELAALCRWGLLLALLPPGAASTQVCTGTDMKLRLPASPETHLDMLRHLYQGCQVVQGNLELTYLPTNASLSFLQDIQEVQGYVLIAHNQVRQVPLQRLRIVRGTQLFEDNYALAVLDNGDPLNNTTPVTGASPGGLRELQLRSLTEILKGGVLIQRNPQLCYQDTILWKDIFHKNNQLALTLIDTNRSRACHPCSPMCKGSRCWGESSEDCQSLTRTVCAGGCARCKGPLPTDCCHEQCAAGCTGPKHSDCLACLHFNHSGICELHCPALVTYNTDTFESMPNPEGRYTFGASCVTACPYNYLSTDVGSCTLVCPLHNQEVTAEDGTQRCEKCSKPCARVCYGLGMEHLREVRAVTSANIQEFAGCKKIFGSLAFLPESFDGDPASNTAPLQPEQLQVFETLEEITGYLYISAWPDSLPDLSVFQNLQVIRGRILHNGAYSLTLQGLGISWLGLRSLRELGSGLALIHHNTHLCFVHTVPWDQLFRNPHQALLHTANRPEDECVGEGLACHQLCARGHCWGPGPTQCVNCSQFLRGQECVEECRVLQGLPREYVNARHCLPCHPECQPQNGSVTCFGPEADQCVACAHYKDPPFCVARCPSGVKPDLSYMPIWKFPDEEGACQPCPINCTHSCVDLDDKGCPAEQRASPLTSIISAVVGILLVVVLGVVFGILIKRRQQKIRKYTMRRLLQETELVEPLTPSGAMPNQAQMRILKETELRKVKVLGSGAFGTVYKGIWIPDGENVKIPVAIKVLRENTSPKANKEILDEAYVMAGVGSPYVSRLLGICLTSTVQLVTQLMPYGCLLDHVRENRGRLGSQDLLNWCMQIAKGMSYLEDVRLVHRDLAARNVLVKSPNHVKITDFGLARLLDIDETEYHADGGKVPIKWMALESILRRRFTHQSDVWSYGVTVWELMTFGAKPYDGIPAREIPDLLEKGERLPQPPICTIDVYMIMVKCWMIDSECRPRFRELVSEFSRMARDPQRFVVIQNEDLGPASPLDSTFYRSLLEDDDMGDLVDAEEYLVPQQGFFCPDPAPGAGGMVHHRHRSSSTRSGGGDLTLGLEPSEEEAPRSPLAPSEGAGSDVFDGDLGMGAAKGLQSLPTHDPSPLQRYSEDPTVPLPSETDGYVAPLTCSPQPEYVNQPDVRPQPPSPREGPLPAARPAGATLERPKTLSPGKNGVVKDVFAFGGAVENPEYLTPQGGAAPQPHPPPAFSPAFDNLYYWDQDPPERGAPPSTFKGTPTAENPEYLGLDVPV
Chain of Cytochrome P450 2D6 (P10635 whole entry): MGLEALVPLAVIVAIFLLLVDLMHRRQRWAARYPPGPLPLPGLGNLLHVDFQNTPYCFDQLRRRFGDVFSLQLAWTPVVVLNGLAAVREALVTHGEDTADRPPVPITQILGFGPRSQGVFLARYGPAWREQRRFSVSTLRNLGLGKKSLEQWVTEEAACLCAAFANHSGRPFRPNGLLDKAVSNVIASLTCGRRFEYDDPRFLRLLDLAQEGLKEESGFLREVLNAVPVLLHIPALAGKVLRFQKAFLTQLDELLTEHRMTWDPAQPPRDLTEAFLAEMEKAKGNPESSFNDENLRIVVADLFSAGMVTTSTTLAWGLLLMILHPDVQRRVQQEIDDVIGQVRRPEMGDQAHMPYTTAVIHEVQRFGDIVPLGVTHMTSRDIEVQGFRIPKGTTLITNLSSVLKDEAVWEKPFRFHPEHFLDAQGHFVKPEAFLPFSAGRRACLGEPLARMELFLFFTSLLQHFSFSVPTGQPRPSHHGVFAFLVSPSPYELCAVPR
Chain of Cytochrome P450 2C9 (P11712 whole entry): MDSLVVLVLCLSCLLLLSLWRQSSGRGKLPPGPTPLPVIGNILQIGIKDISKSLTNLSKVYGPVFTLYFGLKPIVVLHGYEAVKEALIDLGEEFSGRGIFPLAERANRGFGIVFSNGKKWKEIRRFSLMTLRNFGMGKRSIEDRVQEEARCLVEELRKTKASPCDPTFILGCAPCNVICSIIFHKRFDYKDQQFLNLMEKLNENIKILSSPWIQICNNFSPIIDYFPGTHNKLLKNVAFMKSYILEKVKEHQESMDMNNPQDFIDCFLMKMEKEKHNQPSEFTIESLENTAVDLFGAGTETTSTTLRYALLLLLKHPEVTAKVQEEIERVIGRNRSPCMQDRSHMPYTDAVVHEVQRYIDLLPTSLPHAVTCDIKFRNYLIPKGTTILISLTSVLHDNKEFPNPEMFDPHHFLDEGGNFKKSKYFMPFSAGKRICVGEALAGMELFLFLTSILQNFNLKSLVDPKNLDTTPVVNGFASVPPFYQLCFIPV
Chain of Cytochrome P450 2C19 (P33261 whole entry): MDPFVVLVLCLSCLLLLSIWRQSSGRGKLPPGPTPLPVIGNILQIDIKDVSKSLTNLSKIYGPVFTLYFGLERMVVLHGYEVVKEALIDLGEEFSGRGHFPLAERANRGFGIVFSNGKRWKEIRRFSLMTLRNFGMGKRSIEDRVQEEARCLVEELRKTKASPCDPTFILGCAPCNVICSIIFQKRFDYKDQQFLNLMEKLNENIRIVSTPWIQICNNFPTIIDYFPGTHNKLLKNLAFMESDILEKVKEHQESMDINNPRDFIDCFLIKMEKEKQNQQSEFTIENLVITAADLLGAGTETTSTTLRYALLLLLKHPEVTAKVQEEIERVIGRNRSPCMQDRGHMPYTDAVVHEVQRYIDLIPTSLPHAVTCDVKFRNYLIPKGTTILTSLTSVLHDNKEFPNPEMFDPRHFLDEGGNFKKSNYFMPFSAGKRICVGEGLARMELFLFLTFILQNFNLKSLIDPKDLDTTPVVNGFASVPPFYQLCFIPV

- IC50 [1]: 0.25 µM
- IC50 [2]: 0.091 µM
Structure (SMILES): COCCNC(=O)CN1CCC(Oc2cc3c(Nc4cccc(Cl)c4F)ncnc3cc2OC)CC1

- IC50 [1]: 0.36 µM
Structure (SMILES): CNC(=O)CN1CCC(Oc2cc3c(Nc4cccc(Cl)c4)ncnc3cc2OC)CC1

- IC50 (KB): 0.004 µM
- logD [3]: 3.1
- AUC [4]: 19 µM·h
Structure (SMILES): COc1cc2ncnc(Nc3cccc(Cl)c3F)c2cc1OC1CCN(CC(N)=O)CC1
- inhibition in vivo at 100 mg/kg (LoVo): 36%

- IC50 [1]: 0.12 µM
- IC50 [2]: 0.033 µM
Structure (SMILES): CCNC(=O)CN1CCC(Oc2cc3c(Nc4cccc(Cl)c4F)ncnc3cc2OC)CC1

- IC50 [1]: 0.67 µM
- IC50 [2]: 0.22 µM
Structure (SMILES): COc1cc2ncnc(Nc3cccc(Cl)c3F)c2cc1OC1CCN(CC(=O)N(C)C)CC1

- IC50 [1]: 0.089 µM
Structure (SMILES): CNC(=O)CN1CCC(Oc2cc3c(Nc4ccc(F)c(Cl)c4F)ncnc3cc2OC)CC1

- IC50 [1]: 1.5 µM
Structure (SMILES): CNC(=O)CN(C)CCOc1cc2c(Nc3cccc(Cl)c3F)ncnc2cc1OC

- IC50 [1]: 0.23 µM
Structure (SMILES): CNC(=O)CN1CCCC(Oc2cc3c(Nc4cccc(Cl)c4F)ncnc3cc2OC)C1 (racemic)

- IC50 [1]: 0.264 µM
- fraction unbound [5]: 0.027
- logD [3]: 4
- fraction unbound [6]: 0.029
- AUC [4]: 19 µM·h
Structure (SMILES): CNC(=O)CN1CCC(Oc2cc3c(Nc4ccc(F)c(Cl)c4)ncnc3cc2OC)CC1
- inhibition in vivo at 100 mg/kg (LoVo): 28%

Structure (SMILES): CNC(=O)CN1CCC(Oc2cc3c(Nc4cccc(Cl)c4F)ncnc3cc2OC)CC1 [SAPITINIB]
- bioavailability [7]: 38%
- hepatocyte CLint [8]: < 4.5 µL/min/1e6 cells
- IC50 [1]: 0.06 µM
- Papp A→B at 10 µM [9]: 15.9 ×10⁻⁶ cm/s
- IC50 (Cytochrome P450 2C9): > 10 µM
- IC50 [2]: 0.014 µM
- clearance [10]: 13 mL/min/kg
- fraction unbound [5]: 0.067
- IC50 (Cytochrome P450 2D6): > 10 µM
- logD [3]: 3.2
- Vd [11]: 0.8 L/kg
- IC50 (Cytochrome P450 1A2): > 10 µM
- IC50 (Cytochrome P450 2C19): > 10 µM
- inhibition in vivo at 100 mg/kg (LoVo): 76%
- fraction unbound [6]: 0.072
- clearance [12]: 1.1 mL/min/kg
- bioavailability [13]: 89%
- Vd [14]: 0.2 L/kg
- AUC [4]: 66 µM·h
- solubility [15]: 17 µM (≈ 8.06 µg/mL)

- IC50 [1]: 0.86 µM
Structure (SMILES): CNC(=O)CN1CCC(Oc2cc3c(Nc4cc(Cl)ccc4F)ncnc3cc2OC)CC1

- IC50 [1]: 1.1 µM
Structure (SMILES): CNC(=O)CN1CC(Oc2cc3c(Nc4cccc(Cl)c4F)ncnc3cc2OC)C1

- IC50 [1]: 0.25 µM
Structure (SMILES): CNC(=O)CN1CCC(Oc2cc3c(Nc4cccc(Cl)c4F)ncnc3cc2OC)C1 (racemic)

- IC50 [1]: 0.41 µM
- IC50 [2]: 0.11 µM
Structure (SMILES): COc1cc2ncnc(Nc3cccc(Cl)c3F)c2cc1OC1CCN(CC(=O)NC(C)C)CC1

- IC50 [1]: 0.55 µM
Structure (SMILES): CNC(=O)CCN1CCC(Oc2cc3c(Nc4cccc(Cl)c4F)ncnc3cc2OC)CC1

Reference: ChEMBL document CHEMBL2407034, “Discovery of AZD8931, an Equipotent, Reversible Inhibitor of Signaling by EGFR, HER2, and HER3 Receptors” (ACS Med Chem Lett, 2013)
